Patent publication US8835377B2, “Oral delivery of peptide pharmaceutical compositions” (UGP Therapeutics, Inc., priority 2004, dated 2014)

Assay: Pharmacokinetics after oral capsules (sCT plus Dmt-DALDA with citric acid and lauroyl carnitine), non-enteric coated or enteric coated, in fasted beagle dogs (plasma; ELISA for sCT, HPLC-MS for Dmt-DALDA)
Type: in vivo
Procedure: A second series of tests was carried out, as noted above, using beagle dogs. […] In the experiments represented in FIGS. 2A and 2B, size 00 […] capsules were each filled with 758 mg of a powdered blend consisting of citric acid (643 mg), lauroyl carnitine (66 mg), talc (33 mg), salmon calcitonin (sCT) (13 mg) and Dmt-DALDA (2.4 mg). Half of the capsules were coated with an enteric coating solution of L30D-55, while the remaining 50% of the capsules were not coated. Four fasted dogs were each given 1 uncoated capsule, and 2 weeks later they were each given an enteric coated capsule. After administration of each capsule, samples of blood were taken at 15 minute intervals from an indwelling catheter for up to 4 hours. The blood samples were centrifuged and the resulting plasma supernatants were stored frozen at −20° C. The plasma samples were subsequently analyzed for sCT by a direct ELISA, and for Dmt-DALDA by HPLC-mass spectrometry performed as set forth in Wan, H. and Desiderio, D., Quantitation of [DMT^1] DALDA in ovine plasma by on-line liquid chromatography/quadrapole time-of-flight mass spectrometry, Rapid Communications in Mass Spectrometry, 2003; 17, 538-546, the contents of which are incorporated herein by reference.
The results summarized in FIGS. 2A and 2B as plasma peptide concentration normalized to a 1 mg dose as a function of time relative to the average Tmax, (i.e., the time at which the maximum amount of peptide was detected) indicate that both peptides, i.e., sCT and Dmt-DALDA, were detected in dogs given uncoated or enteric coated capsules. […] Table DI (below) sets forth the values upon which the curves in FIGS. 2A and 2B are based. The results are summarized in the tables as plasma peptide concentration normalized to a 1 mg dose as a function of time. Table III, moreover, provides the standard deviations for the data obtained regarding each of the test dogs, which standard deviations are also indicated in FIGS. 2A and 2B.
Table IV (below) summarizes the pharmacokinetic parameters in dogs of orally administered sCT and Dmt-DALDA when administered in non-enteric coated versus enteric coated capsules. Peptide was not detected from 1 dog in each group due to (a) Dog 3 vomiting the uncoated capsule and (b) delayed gastric emptying in Dog 2 provided with an enteric coated capsule. Cmax and AUC are as defined with regard to Table H above.

CC(C)C[C@H](NC(=O)[C@H](CCCCN)NC(=O)CNC(=O)[C@H](CC(C)C)NC(=O)[C@@H](NC(=O)[C@@H]1CSSC[C@H](N)C(=O)N[C@@H](CO)C(=O)N[C@@H](CC(N)=O)C(=O)N[C@@H](CC(C)C)C(=O)N[C@@H](CO)C(=O)N[C@@H]([C@@H](C)O)C(=O)N1)C(C)C)C(=O)N[C@@H](CO)C(=O)N[C@@H](CCC(N)=O)C(=O)N[C@@H](CCC(=O)O)C(=O)N[C@@H](CC(C)C)C(=O)N[C@@H](Cc1c[nH]cn1)C(=O)N[C@@H](CCCCN)C(=O)N[C@@H](CC(C)C)C(=O)N[C@@H](CCC(N)=O)C(=O)N[C@H](C(=O)N[C@@H](Cc1ccc(O)cc1)C(=O)N1CCC[C@H]1C(=O)N[C@@H](CCCNC(=N)N)C(=O)N[C@H](C(=O)N[C@@H](CC(N)=O)C(=O)N[C@H](C(=O)NCC(=O)N[C@@H](CO)C(=O)NCC(=O)N[C@H](C(=O)N1CCC[C@H]1C(N)=O)[C@@H](C)O)[C@@H](C)O)[C@@H](C)O)[C@@H](C)O [sCT, salmon calcitonin]
plasma peptide concentration normalized to a 1 mg dose (enteric coated capsule, Dog 3, 75 min): 0 pg/mL
plasma peptide concentration normalized to a 1 mg dose (enteric coated capsule, Dog 3, 90 min): 0 pg/mL
plasma peptide concentration normalized to a 1 mg dose (enteric coated capsule, Dog 3, 105 min): 0 pg/mL
plasma peptide concentration normalized to a 1 mg dose (enteric coated capsule, Dog 3, 120 min): 0 pg/mL
plasma peptide concentration normalized to a 1 mg dose (enteric coated capsule, Dog 3, 135 min): 13219 pg/mL
plasma peptide concentration normalized to a 1 mg dose (enteric coated capsule, Dog 3, 150 min): 10151 pg/mL
plasma peptide concentration normalized to a 1 mg dose (enteric coated capsule, Dog 3, 165 min): 4410 pg/mL
plasma peptide concentration normalized to a 1 mg dose (enteric coated capsule, Dog 3, 180 min): 2983 pg/mL
plasma peptide concentration normalized to a 1 mg dose (enteric coated capsule, Dog 3, 195 min): 1825 pg/mL
plasma peptide concentration normalized to a 1 mg dose (enteric coated capsule, Dog 4, 0 min): 0 pg/mL
plasma peptide concentration normalized to a 1 mg dose (enteric coated capsule, Dog 4, 15 min): 0 pg/mL
plasma peptide concentration normalized to a 1 mg dose (enteric coated capsule, Dog 4, 30 min): 0 pg/mL
plasma peptide concentration normalized to a 1 mg dose (enteric coated capsule, Dog 4, 45 min): 0 pg/mL
plasma peptide concentration normalized to a 1 mg dose (enteric coated capsule, Dog 4, 60 min): 0 pg/mL
plasma peptide concentration normalized to a 1 mg dose (enteric coated capsule, Dog 4, 75 min): 0 pg/mL
plasma peptide concentration normalized to a 1 mg dose (enteric coated capsule, Dog 4, 90 min): 0 pg/mL
plasma peptide concentration normalized to a 1 mg dose (enteric coated capsule, Dog 4, 105 min): 13111 pg/mL
plasma peptide concentration normalized to a 1 mg dose (enteric coated capsule, Dog 4, 120 min): 13147 pg/mL
plasma peptide concentration normalized to a 1 mg dose (enteric coated capsule, Dog 4, 135 min): 6841 pg/mL
plasma peptide concentration normalized to a 1 mg dose (enteric coated capsule, Dog 4, 150 min): 4251 pg/mL
plasma peptide concentration normalized to a 1 mg dose (enteric coated capsule, Dog 4, 165 min): 2448 pg/mL
plasma peptide concentration normalized to a 1 mg dose (enteric coated capsule, Dog 4, 180 min): 1468 pg/mL
plasma peptide concentration normalized to a 1 mg dose (enteric coated capsule, Dog 4, 195 min): 1192 pg/mL
plasma peptide concentration normalized to a 1 mg dose (non-enteric coated capsule, Dog 1, 45 min): 1343 pg/mL
plasma peptide concentration normalized to a 1 mg dose (non-enteric coated capsule, Dog 1, 60 min): 561 pg/mL
plasma peptide concentration normalized to a 1 mg dose (non-enteric coated capsule, Dog 1, 75 min): 273 pg/mL
plasma peptide concentration normalized to a 1 mg dose (non-enteric coated capsule, Dog 1, 90 min): 140 pg/mL
plasma peptide concentration normalized to a 1 mg dose (non-enteric coated capsule, Dog 1, 105 min): 121 pg/mL
plasma peptide concentration normalized to a 1 mg dose (non-enteric coated capsule, Dog 1, 120 min): 89 pg/mL
plasma peptide concentration normalized to a 1 mg dose (non-enteric coated capsule, Dog 1, 135 min): 51 pg/mL
plasma peptide concentration normalized to a 1 mg dose (non-enteric coated capsule, Dog 1, 150 min): 31 pg/mL
plasma peptide concentration normalized to a 1 mg dose (non-enteric coated capsule, Dog 1, 165 min): 23 pg/mL
plasma peptide concentration normalized to a 1 mg dose (non-enteric coated capsule, Dog 1, 180 min): 16 pg/mL
plasma peptide concentration normalized to a 1 mg dose (non-enteric coated capsule, Dog 1, 195 min): 11 pg/mL
plasma peptide concentration normalized to a 1 mg dose (non-enteric coated capsule, Dog 1, 210 min): 0 pg/mL
plasma peptide concentration normalized to a 1 mg dose (non-enteric coated capsule, Dog 1, 225 min): 0 pg/mL
plasma peptide concentration normalized to a 1 mg dose (non-enteric coated capsule, Dog 1, 240 min): 0 pg/mL
plasma peptide concentration normalized to a 1 mg dose (non-enteric coated capsule, Dog 2, 45 min): 2151 pg/mL
plasma peptide concentration normalized to a 1 mg dose (non-enteric coated capsule, Dog 2, 60 min): 897 pg/mL
plasma peptide concentration normalized to a 1 mg dose (non-enteric coated capsule, Dog 2, 75 min): 229 pg/mL
plasma peptide concentration normalized to a 1 mg dose (non-enteric coated capsule, Dog 2, 90 min): 182 pg/mL
plasma peptide concentration normalized to a 1 mg dose (non-enteric coated capsule, Dog 2, 105 min): 122 pg/mL
plasma peptide concentration normalized to a 1 mg dose (non-enteric coated capsule, Dog 2, 120 min): 69 pg/mL
plasma peptide concentration normalized to a 1 mg dose (non-enteric coated capsule, Dog 2, 135 min): 44 pg/mL
plasma peptide concentration normalized to a 1 mg dose (non-enteric coated capsule, Dog 2, 150 min): 39 pg/mL
plasma peptide concentration normalized to a 1 mg dose (non-enteric coated capsule, Dog 2, 165 min): 22 pg/mL
plasma peptide concentration normalized to a 1 mg dose (non-enteric coated capsule, Dog 2, 180 min): 15 pg/mL
plasma peptide concentration normalized to a 1 mg dose (non-enteric coated capsule, Dog 2, 195 min): 0 pg/mL
plasma peptide concentration normalized to a 1 mg dose (non-enteric coated capsule, Dog 2, 210 min): 0 pg/mL
plasma peptide concentration normalized to a 1 mg dose (non-enteric coated capsule, Dog 2, 225 min): 0 pg/mL
plasma peptide concentration normalized to a 1 mg dose (non-enteric coated capsule, Dog 2, 240 min): 0 pg/mL
plasma peptide concentration normalized to a 1 mg dose (non-enteric coated capsule, Dog 4, 45 min): 278 pg/mL
plasma peptide concentration normalized to a 1 mg dose (non-enteric coated capsule, Dog 4, 60 min): 163 pg/mL
plasma peptide concentration normalized to a 1 mg dose (non-enteric coated capsule, Dog 4, 75 min): 101 pg/mL
plasma peptide concentration normalized to a 1 mg dose (non-enteric coated capsule, Dog 4, 90 min): 69 pg/mL
plasma peptide concentration normalized to a 1 mg dose (non-enteric coated capsule, Dog 4, 105 min): 45 pg/mL
plasma peptide concentration normalized to a 1 mg dose (non-enteric coated capsule, Dog 4, 120 min): 26 pg/mL
plasma peptide concentration normalized to a 1 mg dose (non-enteric coated capsule, Dog 4, 135 min): 16 pg/mL
plasma peptide concentration normalized to a 1 mg dose (non-enteric coated capsule, Dog 4, 150 min): 12 pg/mL
plasma peptide concentration normalized to a 1 mg dose (non-enteric coated capsule, Dog 4, 165 min): 0 pg/mL
plasma peptide concentration normalized to a 1 mg dose (non-enteric coated capsule, Dog 4, 180 min): 0 pg/mL
plasma peptide concentration normalized to a 1 mg dose (non-enteric coated capsule, Dog 4, 195 min): 0 pg/mL
plasma peptide concentration normalized to a 1 mg dose (non-enteric coated capsule, Dog 4, 210 min): 0 pg/mL
plasma peptide concentration normalized to a 1 mg dose (non-enteric coated capsule, Dog 4, 225 min): 0 pg/mL
plasma peptide concentration normalized to a 1 mg dose (non-enteric coated capsule, Dog 4, 240 min): 0 pg/mL
